According to patent US20190135787A1, “PYRIMIDINE COMPOSITIONS, ULTRA-PURE COMPOSITIONS AND SALTS THEREOF, METHODS OF MAKING THE SAME, AND METHODS OF USING THE SAME FOR TREATING HISTAMINE H4 RECEPTOR (H4) MEDIATED DISEASES AND CONDITIONS” (Novartis AG, priority 2015, published 2019):

What was measured:
[1] = Salt screen: physical stability under accelerated aging conditions (HT-XRPD); format: physicochemical; conditions: 40° C., 75% RH, two days, code+number = crystalline salt form, 0 = crystalline counter ion itself
Procedure: XRPD patterns were obtained using the Crystallics T2 high-throughput XRPD set-up. The plates were mounted on a Bruker General Area Detector Diffraction System (GADDS) equipped with a VANTEC-500 gas area detector corrected for intensity and geometric variations. The calibration of the measurement accuracy (peaks position) was performed using NIST SRM1976 standard (Corundum).
Data collection was carried out at room temperature using monochromatic CuKα radiation in the 2θ region between 1.5° and 41.5°, which is the most distinctive part of the XRPD pattern. The diffraction pattern of each well was collected in two 20 ranges (1.5°≤2θ≤21.5° for the first frame, and 19.5°≤2θ≤41.5° for the second) with an exposure time of 90s for each frame. No background subtraction or curve smoothing was applied to the XRPD patterns.
Approximately 175 mg of N^4-(cyclopropylmethyl)-6-[(3R)-3-(methylamino)pyrrolidin-1-yl]pyrimidine-2,4-diamine in 1-Butanol and Dichloromethane were combined with a slight molar excess of either solid or liquid counter ion. Samples were incubated at RT. After 5 days the solids were collected, dried under vacuum and analyzed by HT-XRPD (XRPD 1).
Subsequently, the solids were exposed to accelerated aging conditions (40° C., 75% RH) for two days and re-analyzed by HT-XRPD (XRPD 2). Crystalline salts (polymorphs) are indicated with the abbreviated counter ion code and a number (1, 2, etc.). The number zero (0) indicates the crystalline counter ion itself.

[2] = Dynamic vapor sorption (DVS); format: physicochemical; conditions: 25° C.
Procedure: Moisture sorption isotherms were collected on a DVS-1 system from Surface Measurement Systems (London, UK). Typical sample size is between 5 and 10 mg of solid material. The relative humidity was cycled between 40% to 0% (desorption), up to 95% (sorption), back to 0% RH (desorption) and up to 95% RH (sorption) in steps of 10% at a constant temperature of 25° C. with an initial stabilizing step at 40% RH for 6 hours.

[3] = system: adult subjects with moderate to severe atopic dermatitis; assay: Phase 2a study in moderate to severe atopic dermatitis; format: in vivo, human; conditions: 8 weeks
Procedure: Following the phase 1 trials, a phase 2a trial was conducted to evaluate the efficacy of 8 weeks of treatment with 30 mg ZPL-389 administered once daily in adult subject with moderate to severe atopic dermatitis. The study was also designed to assess the safety and tolerability of ZPL-389 in adult subjects with moderate to severe atopic dermatitis.
This study was a randomized, double blind, placebo controlled, parallel group study of subjects having a pruritus Numerical Rating Scale (NRS) of ≥5 (0-10 scale), an Investigator's Global Assessment (IGA)≥3 (0-3 scale), and moderate-severe AD Eczema Area and Severity Index (EAST)≥12 and ≤48 (0-72 scale). In addition, subjective patient reported outcome instruments include: Ziarco Itch Diary (Electronic) Pruritus; 5D Pruritus Scale; Dermatology Life Quality Index (DLQI); and Patient Global Impression of Change (PGIG).
Each subject (aged 18-65 years) had one or more screening visits to confirm suitability to enter the study. 98 subjects with moderate to severe atopic dermatitis were randomized 2:1 to receive orally either 30 mg ZPL-389 or placebo once daily for eight weeks (56 days).
Efficacy endpoints for the trial include the following: • change from baseline in NRS for pruritus (worst itch) over 24 hours; • change from baseline in daytime NRS for pruritus (worst itch); • change from baseline in night time NRS for pruritus (worst itch); • change from baseline in NRS for sleep disturbance; • change from baseline in duration of itching; • change from baseline in verbal rating score for pruritus; • change from baseline in EASI score; • change from baseline in SCORAD score; • IGA score; • amount of rescue medication use; and/or • PGIC.

[4] = Phase 1 trials, single and multiple ascending doses; format: in vivo, human
Procedure: In phase 1 trials, 62 subjects were treated with ZPL-389.

mild asthmatics = conditions: 36 mg, two single oral doses 12 hours apart; cited from earlier work

Molecule | XRPD2: solid form after accelerated aging ([1]; solid from 1-butanol) | XRPD2: solid form after accelerated aging ([1]; solid from dichloromethane) | further results
CC(=O)Nc1ccc(C(=O)O)cc1 [4-acetamido-Benzoic acid] | ABen1 + ABen0 | ABen1 + ABen0 | 
O=C(O)[C@H](O)[C@@H](O)C(=O)O [(+)-L-Tartaric acid] | Amorphous | Amorphous | 
CC(=O)O [Acetic acid] | Amorphous | Amorphous | 
CN[C@@H]1CCN(c2cc(NCC3CC3)nc(N)n2)C1.O.O.O=C(O)C(O)C(O)C(=O)O [Example 4, N^4-(cyclopropylmethyl)-6-[(3R)-3-(methylamino)pyrrolidin-1-yl]pyrimidine-2,4-diamine tartrate dihydrate] |  |  | total mass uptake ([2]; 20-30% RH): 6.9%; RH at which the dehydration step occurs during desorption [2]: below 10 % RH; water uptake (mass uptake) ([2]; between 0-20% RH): 1.9%; weight ([2]; between 30-90% RH): remains stable
O=C(O)[C@H](O)[C@@H](O)[C@H](O)[C@H](O)CO [Gluconic acid] | Amorphous | Amorphous | 
O=C(O)CCCC(=O)O [Glutaric acid] | Glut1 | Glut1 | 
Cl [Hydrochloric acid] | Amorphous | Amorphous | 
O=S(=O)(O)O [Sulfuric acid] | Amorphous | Amorphous | 
CN[C@@H]1CCN(c2cc(NCC3CC3)nc(N)n2)C1 [ZPL-389, N^4-(cyclopropylmethyl)-6-[(3R)-3-(methylamino)pyrrolidin-1-yl]pyrimidine-2,4-diamine] |  |  | Treatment Emergent Adverse Events (TEAE) vs placebo ([3]; 30 mg once daily): no differences; rescue medication use vs placebo ([3]; 30 mg once daily): lower; tolerability / safety profile ([3]; 30 mg once daily, comparable to placebo): well tolerated; pruritus ([3]; 30 mg once daily, statistically significant compared to baseline): markedly reduced; IGA reduction ([3]; 30 mg orally once daily, placebo 25%): 36%; pharmacokinetics, dose dependence ([4]; phase 1 trials): dose-proportional pharmacokinetics; majority of observed adverse events ([4]; single doses 0.01-48 mg, 5, 15 and 50 mg once daily for 14 days): mild, transient, and non-dose related; tolerability ([4]; single doses 0.01-48 mg, 5, 15 and 50 mg once daily for 14 days, 62 subjects): safely tolerated; efficacy in mild asthma (mild asthmatics): no efficacy was observed
(−)-L-Malic acid | Amorphous | Amorphous | 
Benzoic acid | Ben1 + Ben2 plus | Ben1 + Ben2 plus | 
Citric acid | Amorphous | Amorphous | 

Further lines, with some results ahead:

XRPD2: solid form after accelerated aging ([1]; solid from 1-butanol) | XRPD2: solid form after accelerated aging ([1]; solid from dichloromethane) | Molecule | further results
Amorphous | Amorphous | O=C(O)C(O)c1ccccc1 (racemic) [DL-Mandelic acid] | 
Amorphous | Amorphous | O=C[C@H](O)[C@@H](O)[C@H](O)[C@H](O)C(=O)O [D-Glucuronic acid] | 
Eds1 + Eds2 | Eds1 | O=S(=O)(O)CCS(=O)(=O)O [Ethane-1,2-disulfonic acid] | 
Gen2 | Gen2 | O=C(O)c1cc(O)ccc1O [Gentisic acid] | 
Gltm0 | Amorphous | N[C@@H](CCC(=O)O)C(=O)O [Glutamic acid] | 
Amorphous | Amorphous | O=C(O)CNC(=O)c1ccccc1 [Hippuric acid] | 
Amorphous | Amorphous | Br [Hydrobromic acid] | 
Asp0 | Amorphous | N[C@@H](CC(=O)O)C(=O)O [L-Aspartic acid] | 
Amorphous | Amorphous | CS(=O)(=O)O [Methanesulfonic acid] | 
Nap1 + Nap0 | Amorphous | O=S(=O)(O)c1ccc2ccccc2c1 [Naphtalene-2-sulfonic acid] | 
Pho2 plus | Pho3 | O=P(O)(O)O [Phosphoric acid] | 
Sal1 plus | Amorphous | O=C(O)c1ccccc1O [Salicylic acid] | 
Ste0 + Ste1 | Ste0 + Ste1 | CCCCCCCCCCCCCCCCCC(=O)O [Stearic acid] | 
Amorphous | Amorphous | Benzenesulfonic acid | 
Amorphous | Amorphous | Ethanesulfonic acid | 
Amorphous | Fum0 + Fum3 | Fumaric acid | 
Amorphous | Amorphous | Lactic acid | 
Amorphous | Amorphous | Maleic acid | 
Oxa3 | Oxa3 | Oxalic acid | 
